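Briefly, cells in 96-well plates were exposed to five compound concentrations for 48 h, and endpoints were estimated by linear interpolation. GI50: concentration for 50% inhibition of growth.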 Calls of active or inactive are those of the source. Rule as the data show it: active = GI50 up to about 1.1 µM and inactive = higher.
How the values were obtained:
Experiment in all cases: growth of human tumour cells (NCI), 48 h
SNB-75 = tested on: SNB-75
OVCAR-3 = tested on: OVCAR-3
UO-31 = tested on: UO-31
K562 = tested on: K562
786-0 = tested on: 786-0
RPMI-8226 = tested on: RPMI-8226
TK-10 = tested on: TK-10
EKVX = tested on: EKVX
CAKI-1 = tested on: CAKI-1
SF-539 = tested on: SF-539
UACC-62 = tested on: UACC-62
CCRF-CEM = tested on: CCRF-CEM
COLO 205 = tested on: COLO 205
NCI-H460 = tested on: NCI-H460

Measured: GI50

CC(C)c1ccccc1NC(=O)CCC(=O)NN
inactive: SNB-75 > 100 µM | OVCAR-3 > 100 µM | UO-31 > 100 µM | K562 > 100 µM | 786-0 > 100 µM | RPMI-8226 > 100 µM | TK-10 > 100 µM | EKVX > 100 µM | CAKI-1 > 100 µM | SF-539 > 100 µM | UACC-62 > 100 µM | CCRF-CEM > 100 µM

CC(=O)O[C@@H]1CC(C)C2CC2C2=C(C(O)OC2O)[C@@H]1C(C)CCC=C(C)C (some centres undefined)
inactive: SNB-75 26.9 µM | UO-31 22.2 µM | K562 23.9 µM | 786-0 21.4 µM | RPMI-8226 25.2 µM | COLO 205 18.2 µM | TK-10 33.3 µM | NCI-H460 20 µM | EKVX 40 µM | CAKI-1 26.4 µM | SF-539 18.9 µM | UACC-62 26.3 µM | CCRF-CEM 24.8 µM

CCSc1nnc(-c2ccccc2)nc1Cc1ccc(OC)cc1
inactive: SNB-75 65.8 µM | OVCAR-3 88.9 µM | UO-31 > 100 µM | K562 71.3 µM | 786-0 > 100 µM | RPMI-8226 81.8 µM | COLO 205 86.9 µM | TK-10 > 100 µM | NCI-H460 46.5 µM | EKVX > 100 µM | SF-539 > 100 µM | UACC-62 > 100 µM | CCRF-CEM 69 µM

CCN(CC)C(=O)CCn1ccc(=O)[nH]c1=O
inactive: SNB-75 43.1 µM | OVCAR-3 > 100 µM | UO-31 > 100 µM | K562 > 100 µM | 786-0 > 100 µM | RPMI-8226 > 100 µM | COLO 205 > 100 µM | TK-10 > 100 µM | NCI-H460 > 100 µM | EKVX > 100 µM | SF-539 > 100 µM | UACC-62 > 100 µM | CCRF-CEM > 100 µM

CSc1sc(=S)sc1C(=O)N(C)c1ccccc1
inactive: SNB-75 22.6 µM | OVCAR-3 91.8 µM | UO-31 > 100 µM | K562 > 100 µM | 786-0 > 100 µM | RPMI-8226 52.7 µM | COLO 205 > 100 µM | TK-10 > 100 µM | NCI-H460 > 100 µM | EKVX > 100 µM | SF-539 > 100 µM | UACC-62 78.7 µM | CCRF-CEM 56 µM

CC12CC/C(=N/NC(N)=O)C3C1CCCC32
inactive: SNB-75 > 100 µM | OVCAR-3 > 100 µM | UO-31 > 100 µM | K562 > 100 µM | 786-0 > 100 µM | RPMI-8226 > 100 µM | COLO 205 > 100 µM | TK-10 > 100 µM | NCI-H460 > 100 µM | CAKI-1 > 100 µM | SF-539 > 100 µM | UACC-62 > 100 µM | CCRF-CEM > 100 µM

O=C1C(c2ccccc2)=[N+]([O-])c2ccc(Cl)cc21
inactive: SNB-75 46.8 µM | OVCAR-3 23.3 µM | UO-31 43.3 µM | K562 32.5 µM | 786-0 82.4 µM | RPMI-8226 21.2 µM | COLO 205 14.1 µM | TK-10 29.2 µM | NCI-H460 42.4 µM | EKVX 16.9 µM | SF-539 20.2 µM | UACC-62 17.5 µM | CCRF-CEM 25.9 µM

NCCSc1cc(O)c2c(c1N)C(=O)c1ccccc1C2=O
inactive: SNB-75 67.6 µM | OVCAR-3 43 µM | UO-31 > 100 µM | K562 22.2 µM | 786-0 29.9 µM | TK-10 > 100 µM | NCI-H460 36 µM | EKVX > 100 µM | CAKI-1 > 100 µM | SF-539 92.5 µM | UACC-62 36.7 µM | CCRF-CEM 16.8 µM

COc1ccc([C@H]2CC3C(=O)N(c4ccc(OC)cc4)C(=O)C3c3[nH]c4ccccc4c32)cc1 (some centres undefined)
inactive: SNB-75 16.1 µM | OVCAR-3 > 100 µM | UO-31 > 100 µM | K562 > 100 µM | 786-0 10.8 µM | COLO 205 97.5 µM | TK-10 > 100 µM | NCI-H460 18.6 µM | EKVX > 100 µM | CAKI-1 > 100 µM | SF-539 20.7 µM | UACC-62 > 100 µM | CCRF-CEM 48.4 µM

N#[N+][c-]1c(-c2ccccc2)n[nH]c1=O
inactive: SNB-75 > 100 µM | OVCAR-3 > 100 µM | K562 97.9 µM | 786-0 > 100 µM | RPMI-8226 > 100 µM | COLO 205 > 100 µM | TK-10 > 100 µM | NCI-H460 > 100 µM | EKVX > 100 µM | CAKI-1 > 100 µM | SF-539 > 100 µM | CCRF-CEM > 100 µM

BrC12C3C4C5C(C(C43)C13OCCO3)C52 (centres undefined)
inactive: SNB-75 > 100 µM | OVCAR-3 > 100 µM | UO-31 > 100 µM | K562 > 100 µM | 786-0 > 100 µM | RPMI-8226 > 100 µM | COLO 205 > 100 µM | TK-10 > 100 µM | NCI-H460 > 100 µM | EKVX > 100 µM | SF-539 > 100 µM | CCRF-CEM > 100 µM

CC(C)CCC[C@@H](C)C1CCC2[C@@H]3CC=C4C[C@@H](C(=O)NCC[N+](C)(C)CCCS(=O)(=O)[O-])CC[C@]4(C)C3CC[C@@]21C (some centres undefined)
inactive: SNB-75 20.2 µM | OVCAR-3 16.4 µM | UO-31 19.8 µM | K562 14.2 µM | 786-0 17.2 µM | RPMI-8226 20.4 µM | COLO 205 17.5 µM | NCI-H460 15.7 µM | EKVX 16.9 µM | CAKI-1 14.2 µM | SF-539 21.3 µM | UACC-62 20.1 µM | CCRF-CEM 16.2 µM

O=C(O)[C@H](NS(=O)(=O)c1ccc2ccccc2c1)c1ccccc1
inactive: SNB-75 > 100 µM | UO-31 > 100 µM | K562 > 100 µM | 786-0 > 100 µM | RPMI-8226 > 100 µM | COLO 205 > 100 µM | NCI-H460 > 100 µM | CAKI-1 > 100 µM | SF-539 > 100 µM | UACC-62 > 100 µM | CCRF-CEM > 100 µM

Cc1ccc2nc(NC(=O)C(=O)C(C#N)c3nc4ccccc4s3)sc2c1 (centres undefined)
inactive: SNB-75 40.6 µM | OVCAR-3 23.4 µM | UO-31 39.8 µM | K562 29.2 µM | 786-0 44.5 µM | RPMI-8226 28.3 µM | COLO 205 18 µM | TK-10 30.8 µM | NCI-H460 34 µM | EKVX 39 µM | CAKI-1 42.2 µM | SF-539 22.3 µM | UACC-62 30.7 µM

NC1=NS(=O)(=O)N=C(N)C1=Cc1ccc([N+](=O)[O-])o1
inactive: SNB-75 16.3 µM | OVCAR-3 18.1 µM | UO-31 17.9 µM | K562 6.01 µM | 786-0 17.1 µM | RPMI-8226 17.1 µM | COLO 205 15.7 µM | TK-10 18.6 µM | NCI-H460 17.9 µM | EKVX 17.9 µM | SF-539 18.3 µM | UACC-62 16.4 µM | CCRF-CEM 9.33 µM
